The assay has as its target T1, human GLP-1R receptor (Homo sapiens, UniProt P43220).
T1 construct: expressed in transfected cells
Description: GLP-1R low expression cell assay (cAMP TR-FRET, CHO-K1_hGLP-1Rlow_clone10 cells). As to conditions: for EC50: cAMP TR-FRET, 30 min at 25° C.; for Emax: maximum activation relative to control GLP-1 peptide agonist. In kind it is cell-based. In a few lines:
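CHO-K1 cells stably expressing low surface human GLP-1R (clone10), 1,000 cells/well, exposed to 10-point 3-fold compound dilutions for 30 min at 25 °C. cAMP measured by TR-FRET (Eu-cAMP tracer/ULight-anti-cAMP, 15 min). EC50 from Hill fit of duplicate percent activation relative to a parallel GLP-1 control agonist.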
In general terms: Time-resolved FRET reads energy transfer from a long-lived donor to a nearby acceptor.

A value given as a limit tells only on which side of the number the result lay.

T1 sequence (P43220 24-463): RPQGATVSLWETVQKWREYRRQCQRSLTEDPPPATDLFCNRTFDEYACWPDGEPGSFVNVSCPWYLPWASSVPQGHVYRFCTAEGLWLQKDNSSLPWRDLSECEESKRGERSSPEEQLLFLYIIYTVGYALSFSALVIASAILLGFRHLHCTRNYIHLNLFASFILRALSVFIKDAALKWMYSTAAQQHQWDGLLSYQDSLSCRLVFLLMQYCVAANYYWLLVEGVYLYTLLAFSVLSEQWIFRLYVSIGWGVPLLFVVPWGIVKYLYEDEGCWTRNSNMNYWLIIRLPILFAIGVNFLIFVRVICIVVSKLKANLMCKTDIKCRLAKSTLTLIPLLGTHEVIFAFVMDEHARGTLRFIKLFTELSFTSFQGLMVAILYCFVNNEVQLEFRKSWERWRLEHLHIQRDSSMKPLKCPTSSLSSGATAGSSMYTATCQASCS

As a reminder, the EC50 is the concentration that produces a half-maximal response. The low end stands for a more potent agent, the high end for a less potent agent. The term Emax denotes the maximal effect, on the per cent scale that the assay sets. Turning to `Cn1c(CN2CCC(c3cccnc3OCc3ccc(Cl)cc3F)CC2)nc2c(OC(F)F)cc(C(=O)O)cc21` [Compound 364, 2-((4-(2-((4-Chloro-2-fluorobenzyl)oxy)pyridin-3-yl)piperidin-1-yl)methyl)-4-(difluoromethoxy)-1-methyl-1H-benzo[d]imidazole-6-carboxylic acid], the EC50 fell in the range of 0.01 to 0.1 µM and the maximum response (Emax) is > 85%. As to `CCOc1cc(C(=O)O)cc2c1nc(CN1CCC(c3cccc4c3OC[C@H](c3ccc(C#N)cc3F)O4)CC1)n2C` [Compound 277, (S)-2-((4-(2-(4-Cyano-2-fluorophenyl)-2,3-dihydrobenzo[b][1,4]dioxin-5-yl)piperidin-1-yl)methyl)-4-ethoxy-1-methyl-1H-benzo[d]imidazole-6-carboxylic acid], the concentration giving a half-maximal response (EC50) was > 1 µM and the Emax fell in the range of 50 to 85%. As for `Cn1c(CN2CCC(c3nccc(OCc4ccc(C#N)cc4F)n3)CC2)nc2c(OC(F)F)cc(C(=O)O)cc21` [Compound 184, 2-((4-(4-((4-Cyano-2-fluorobenzyl)oxy)pyrimidin-2-yl)piperidin-1-yl)methyl)-4-(difluoromethoxy)-1-methyl-1H-benzo[d]imidazole-6-carboxylic acid], the half-maximal effective concentration (EC50) lay within 0.1 to 1 µM and the Emax is > 85%.

Consider `Cn1c(CN2CCC(c3cccc(OCc4ccc(Cl)cc4F)n3)CC2)nc2c(O)c(C(=O)O)ccc21` [Compound 345, 2-((4-(6-((4-Chloro-2-fluorobenzyl)oxy)pyridin-2-yl)piperidin-1-yl)methyl)-4-hydroxy-1-methyl-1H-benzo[d]imidazole-5-carboxylic acid], for which the concentration giving a half-maximal response (EC50) was > 1 µM and the maximum response (Emax) lay in the range of 50 to 85%.

Consider `Cn1c(CN2CCC(c3ccc(F)c(OCc4ccc(Cl)cc4F)n3)CC2)nc2c(OC(F)F)cc(C(=O)O)cc21` [Compound 242, 2-((4-(6-((4-Chloro-2-fluorobenzyl)oxy)-5-fluoropyridin-2-yl)piperidin-1-yl)methyl)-4-(difluoromethoxy)-1-methyl-1H-benzo[d]imidazole-6-carboxylic acid], for which the concentration giving a half-maximal response (EC50) was 0.01 to 0.1 µM and the maximum response (Emax) is > 85%. On to `Cn1c(CN2CCC(c3cccc(OCc4ccccc4F)n3)CC2)nc2c(OC(F)F)cc(C(=O)O)cc21` [Compound 251, 4-(Difluoromethoxy)-2-((4-(6-((2-fluorobenzyl)oxy)pyridin-2-yl)piperidin-1-yl)methyl)-1-methyl-1H-benzo[d]imidazole-6-carboxylic acid], for which the half-maximal effective concentration (EC50) fell in the range of 0.1 to 1 µM. Regarding `Cn1c(CN2CCC(c3cccc(OCc4ccc(C5CC5)cc4F)n3)CC2)nc2c(OC(F)F)cc(C(=O)O)cc21` [Compound 365, 2-((4-(6-((4-Cyclopropyl-2-fluorobenzyl)oxy)pyridin-2-yl)piperidin-1-yl)methyl)-4-(difluoromethoxy)-1-methyl-1H-benzo[d]imidazole-6-carboxylic acid], the EC50 lay within 0.01 to 0.1 µM and the Emax was > 85%. The corresponding values for `Cn1c(CN2CCC(c3cccc(OCc4ccccc4Cl)n3)CC2)nc2c(OC(F)F)cc(C(=O)O)cc21` [Compound 248, 2-((4-(6-((2-Chlorobenzyl)oxy)pyridin-2-yl)piperidin-1-yl)methyl)-4-(difluoromethoxy)-1-methyl-1H-benzo[d]imidazole-6-carboxylic acid] are 0.1 to 1 µM and > 85%.

For `Cn1c(CN2CCC(c3nc(OCc4ccc(Cl)cc4F)ncc3F)CC2)nc2c(OC(F)F)cc(C(=O)O)cc21` [Compound 375, 2-((4-(2-((4-Chloro-2-fluorobenzyl)oxy)-5-fluoropyrimidin-4-yl)piperidin-1-yl)methyl)-4-(difluoromethoxy)-1-methyl-1H-benzo[d]imidazole-6-carboxylic acid], the EC50 is 0.1 to 1 µM and the Emax was > 85%.

For the molecule `Cn1c(CN2CCC(c3cccc(OCc4ccc(Cl)cc4F)n3)CC2)nc2c(OC(F)F)cc(C(=O)O)nc21` [Compound 328, 2-((4-(6-((4-Chloro-2-fluorobenzyl)oxy)pyridin-2-yl)piperidin-1-yl)methyl)-7-(difluoromethoxy)-3-methyl-3H-imidazo[4,5-b]pyridine-5-carboxylic acid], the EC50 lay in the range of 0.01 to 0.1 µM and the Emax is > 85%. Molecule `C[C@@H](c1nc2c(OC(F)F)cc(C(=O)O)cc2n1C)N1CCC(c2cccc(OCc3ccc(C#N)cc3F)n2)CC1` [Compound 119, (S)-2-(1-(4-(6-((4-Cyano-2-fluorobenzyl)oxy)pyridin-2-yl)piperidin-1-yl)ethyl)-4-(difluoromethoxy)-1-methyl-1H-benzo[d]imidazole-6-carboxylic acid] gave an EC50 of 0.01 to 0.1 µM and an Emax of 50 to 85%. Turning to `C[C@H](F)Oc1cc(C(=O)O)cc2c1nc(CN1CCC(c3cccc(OCc4ccc(C#N)cc4F)n3)CC1)n2C` [Compound 313, (S)-2-((4-(6-((4-Cyano-2-fluorobenzyl)oxy)pyridin-2-yl)piperidin-1-yl)methyl)-4-(1-fluoroethoxy)-1-methyl-1H-benzo[d]imidazole-6-carboxylic acid], the EC50 lay within 0.01 to 0.1 µM and the maximal effect (Emax) was > 85%. In the case of `Cn1c(CN2CCC(c3ccc(F)c(OCc4ccc(C(N)=O)cc4F)n3)CC2)nc2c(OC(F)F)cc(C(=O)O)cc21` [Compound 185, 2-((4-(6-((4-carbamoyl-2-fluorobenzyl)oxy)-5-fluoropyridin-2-yl)piperidin-1-yl)methyl)-4-(difluoromethoxy)-1-methyl-1H-benzo[d]imidazole-6-carboxylic acid], the EC50 fell in the range of 0.1 to 1 µM and the Emax is > 85%. As to `COc1nc(C(=O)O)cc2c1nc(CN1CCC(c3cccc(OCc4ccc(Cl)cc4F)n3)CC1)n2C` [Compound 380, 2-((4-(6-((4-Chloro-2-fluorobenzyl)oxy)pyridin-2-yl)piperidin-1-yl)methyl)-4-methoxy-1-methyl-1H-imidazo[4,5-c]pyridine-6-carboxylic acid], the EC50 lay within 0.01 to 0.1 µM and the maximum response (Emax) is > 85%. As for `Cn1c(CN2CCC(c3cccc(OCc4ccc(C#N)cc4F)n3)CC2)nc2c(OC(C)(F)F)cc(C(=O)O)cc21` [Compound 180, 2-((4-(6-((4-Cyano-2-fluorobenzyl)oxy)pyridin-2-yl)piperidin-1-yl)methyl)-4-(1,1-difluoroethoxy)-1-methyl-1H-benzo[d]imidazole-6-carboxylic acid], the EC50 is 0.01 to 0.1 µM and the maximal effect (Emax) was > 85%. Turning to `Cn1c(CN2CCC(c3cccc(F)c3OCc3ccc(C#N)cc3F)CC2)nc2c(OC(F)F)cc(C(=O)O)cc21` [Compound 182, 2-((4-(2-((4-Cyano-2-fluorobenzyl)oxy)-3-fluorophenyl)piperidin-1-yl)methyl)-4-(difluoromethoxy)-1-methyl-1H-benzo[d]imidazole-6-carboxylic acid], the EC50 fell in the range of 0.1 to 1 µM and the Emax was > 85%. Turning to `Cn1c(CN2CCC(c3cccc(N4CCc5cc(C#N)cc(F)c5C4)n3)CC2)nc2c(OC(F)F)cc(C(=O)O)cc21` [Compound 151, 2-((4-(6-(6-Cyano-8-fluoro-3,4-dihydroisoquinolin-2(1H)-yl)pyridin-2-yl)piperidin-1-yl)methyl)-4-(difluoromethoxy)-1-methyl-1H-benzo[d]imidazole-6-carboxylic acid], the concentration for a half-maximal effect (EC50) lay in the range of 0.1 to 1 µM and the Emax is > 85%.

For the molecule `[2H]C([2H])(C)Oc1cc(C(=O)O)cc2c1nc(CN1CCC(c3cccc(OC([2H])([2H])c4ccc(C#N)cc4F)n3)CC1)n2C` [Compound 285, 2-((4-(6-((4-Cyano-2-fluorophenyl)methoxy-d2)pyridin-2-yl)piperidin-1-yl)methyl)-4-(ethoxy-1,1-d2)-1-methyl-1H-benzo[d]imidazole-6-carboxylic acid], the EC50 is < 0.01 µM and the Emax is > 85%. Regarding `Cn1c(CN2CCC(c3cccc4c3O[C@H](c3ccc(C#N)cc3F)CO4)CC2)nc2c(OCCF)cc(C(=O)O)cc21` [Compound 315, (R)-2-((4-(3-(4-Cyano-2-fluorophenyl)-2,3-dihydrobenzo[b][1,4]dioxin-5-yl)piperidin-1-yl)methyl)-4-(2-fluoroethoxy)-1-methyl-1H-benzo[d]imidazole-6-carboxylic acid], the EC50 is 0.01 to 0.1 µM and the maximal response (Emax) is > 85%. Regarding `Cn1c(CN2CCC(c3cccc(OCc4ccc(C#N)cc4F)n3)CC2)nc2c(OC(C)(C)C)cc(C(=O)O)cc21` [Compound 135, 4-(tert-Butoxy)-2-((4-(6-((4-cyano-2-fluorobenzyl)oxy)pyridin-2-yl)piperidin-1-yl)methyl)-1-methyl-1H-benzo[d]imidazole-6-carboxylic acid], the EC50 was in the range of 0.1 to 1 µM and the maximal effect (Emax) is > 85%. In the case of `Cn1c(CN2CCC(c3cccc(OCc4ccc(Cl)cc4F)n3)CC2)nc2c(C#N)cc(C(=O)O)cc21` [Compound 189, 2-((4-(6-((4-chloro-2-fluorobenzyl)oxy)pyridin-2-yl)piperidin-1-yl)methyl)-4-cyano-1-methyl-1H-benzo[d]imidazole-6-carboxylic acid], the EC50 lay within 0.01 to 0.1 µM and the Emax is > 85%.

For the molecule `C[C@@H](F)Oc1cc(C(=O)O)cc2c1nc(CN1CCC(c3cccc(OCc4ccc(Cl)cc4F)n3)CC1)n2C` (single isomer, unassigned) [Compound 361], the EC50 is 0.01 to 0.1 µM and the Emax was > 85%.

In the case of `Cn1c(CN2CCC(c3cccc4c3O[C@H](c3ccc(Cl)cc3F)CO4)CC2)nc2c(OCCF)cc(C(=O)O)cc21` [Compound 333, (R)-2-((4-(3-(4-chloro-2-fluorophenyl)-2,3-dihydrobenzo[b][1,4]dioxin-5-yl)piperidin-1-yl)methyl)-4-(2-fluoroethoxy)-1-methyl-1H-benzo[d]imidazole-6-carboxylic acid], the EC50 fell in the range of 0.1 to 1 µM and the maximal effect (Emax) was > 85%.

These data come from US20240368120A1 (Terns Pharmaceuticals, Inc., priority 2023, published 2024).
